Assay results taken from PubChem BioAssay AID1996.
Converted amounts (≈) assume the structure as drawn.

Settings: buffer; pH 7.4; 200.0 µM

| SMILES | solubility kinetic |
| --- | --- |
| COc1ccccc1NC(=S)Nc1cccc2cnccc12 | 40.9 µg/mL (≈ 132 µM) |
| CCOc1ccc(S(=O)(=O)Nc2ccc(OC)nc2)cc1 | > 46.3 µg/mL |
| O=C1NC(=O)c2cc([N+](=O)[O-])cc3cccc1c23 | 6.3 µg/mL (≈ 26 µM) |
| Cc1ccc(C(=O)NCCNC(=O)c2ccc(C)o2)o1 | 36.1 µg/mL (≈ 131 µM) |
| CN1C(=O)NC(c2ccc(O)cc2)C2=C1CN(c1ccccc1)C2=O (stereo not given) | 7 µg/mL (≈ 20.9 µM) |
| CC(=O)c1c(C)[nH]c(C(=O)OCc2ccc([N+](=O)[O-])cc2)c1C | 2.1 µg/mL (≈ 6.64 µM) |
| O=C(COCc1cc(-c2ccco2)on1)NC1CCCCC1 | 42.4 µg/mL (≈ 139 µM) |
| FC(F)(F)Sc1ccc(NC(=S)NCc2ccccc2)cc1 | < 0.4 µg/mL |
| O=C(O)C1CCN(S(=O)(=O)c2ccc3c(c2)OCCCO3)CC1 | > 51.2 µg/mL |
| N=c1c2c3c(sc2ncn1N)CCCC3 | > 33 µg/mL |
| O=C(COC(=O)/C=C/c1ccccc1)NC1CC1 | > 36.8 µg/mL |
| C=CCNC(=O)N1CCc2[nH]c3ccc(F)cc3c2C1 | > 41 µg/mL |
| CC/C(O)=C1\C(=O)CCCC1=NCCc1c(C)[nH]c2ccc(C)cc12 | 3.3 µg/mL (≈ 9.75 µM) |
| CC(=O)Nc1nc(C)c(Oc2ccc(C)cc2)c(=O)[nH]1 | 39.6 µg/mL (≈ 145 µM) |
| O=C(O)c1ccc(Cl)c(S(=O)(=O)NCc2cccnc2)c1 | > 49 µg/mL |
| Cc1ccc(C(=O)Nc2ccc3ccccc3n2)cc1 | 2.3 µg/mL (≈ 8.77 µM) |
| O=C(NCc1cccnc1)/C(=C/c1ccccc1)NC(=O)c1ccccc1 | > 53.6 µg/mL |
| O=C(CSc1nc(O)c(Cc2ccccc2)c(=O)[nH]1)N1CCOCC1 | 40.2 µg/mL (≈ 111 µM) |
| O=C(NNC(=O)c1ccncc1)Nc1cccc([N+](=O)[O-])c1 | > 45.2 µg/mL |
| O=C(CSc1nccc(-c2cccs2)n1)Nc1ccc(F)c(Cl)c1 | 1.4 µg/mL (≈ 3.69 µM) |
| Cc1ccc(CNC(=O)c2ccc(N(C)C)cc2)cc1 | 3.2 µg/mL (≈ 11.9 µM) |
| CCCc1cnc(N2CCN(S(=O)(=O)c3cccs3)CC2)nc1 | < 0.2 µg/mL |

| SMILES | solubility kinetic |
| --- | --- |
| CCOc1cccc(C=NCCc2ccc(OC)c(OC)c2)c1O | 45.4 µg/mL (≈ 138 µM) |
| COc1cc(C)ccc1OCCON1C(=O)CCC1=O | > 41.9 µg/mL |
| O=C(NC1CCCN(CCc2ccccc2)C1)c1c(F)cccc1F (stereo not given) | > 51.7 µg/mL |
| O=C(Nc1ccccc1)c1c(O)c2c(n(Cc3ccco3)c1=O)CCCC2 | < 0.4 µg/mL |
| O=[N+]([O-])c1ccc(N2CCOCC2)cc1O | > 33.6 µg/mL |
| CC1(C)CC(=O)C=C(NCc2ccc(C(=O)O)cc2)C1 | 37.6 µg/mL (≈ 138 µM) |
| COc1ccc(OCCn2ccnc2C)cc1.O=C(O)C(=O)O | 41.7 µg/mL |
| Cc1ccc(C(=O)Nc2ccc(N3CCN(C)CC3)cc2)cc1 | > 46.4 µg/mL |
| Cc1ccc(C2Nc3ccccc3C(=O)N2CCCN2CCOCC2)cc1 (stereo not given) | 50.3 µg/mL (≈ 138 µM) |
| O=C(NC1CCCc2ccccc21)c1ccc([N+](=O)[O-])cc1 (stereo not given) | 3.2 µg/mL (≈ 10.8 µM) |
| O=C(O)C(Cc1c[nH]c2ccccc12)N1C(=O)C2C3c4ccccc4C(c4ccccc43)[C@@H]2C1=O (stereo not given in full) | 37.1 µg/mL (≈ 80.2 µM) |
| Cc1ccccc1NC(=O)C[n+]1cc(-c2ccccc2)n2c1CCC2.[Cl-] | > 55.2 µg/mL |
| CC(Oc1cccc(Cl)c1)C(=O)NCc1ccc(S(N)(=O)=O)cc1 (stereo not given) | 53.3 µg/mL (≈ 145 µM) |
| O=C1Nc2ccccc2C1=Nc1ccc(F)cc1 | > 36 µg/mL |
| COc1ccc2c(CC(=O)Nc3ccccc3OC)coc2c1 | 31.4 µg/mL (≈ 101 µM) |
| CSc1nsc(SCC(=O)Nc2ccc(F)cc2F)n1 | > 50 µg/mL |
| O=C(NNC(=O)c1cccnc1Cl)c1ccc(F)cc1 | > 44.1 µg/mL |
| Cc1ccc(NC(=O)CN(C)C(=O)c2ccc(Br)o2)cc1 | 14.1 µg/mL (≈ 40.1 µM) |
| O=C(Nc1cccc(Cl)c1)Nc1ccccc1C(=O)O | > 43.6 µg/mL |
| CC(=O)c1ccc(N2CCN(C(=O)Cc3cccs3)CC2)cc1 | 47.3 µg/mL (≈ 144 µM) |
| Cc1cc(C)cc(C(=O)OCC(=O)Nc2ncccn2)c1 | 37.4 µg/mL (≈ 131 µM) |
| CC(C)c1ccccc1NC(=O)C1CC(=O)N(C2CCCC2)C1 (stereo not given) | > 47.2 µg/mL |

| SMILES | solubility kinetic |
| --- | --- |
| O=C(COC(=O)c1cc(Cl)cc(Cl)c1)NCc1ccco1 | 28.4 µg/mL (≈ 86.5 µM) |
| COc1ccc2c(c1)c(C(C)=O)c(C)n2Cc1ccco1 | 36.7 µg/mL (≈ 130 µM) |
| CC(=O)Nc1cccc2c1Cc1ccccc1-2 | 11.7 µg/mL (≈ 52.4 µM) |
| CCOC(=O)c1cc(C)nc(SC)c1C#N | 16.9 µg/mL (≈ 71.5 µM) |
| Cc1ccc(CNC(=O)C2COc3ccccc3O2)cc1 (stereo not given) | 20.1 µg/mL (≈ 70.9 µM) |
| CC(C)(C)c1ccc(C(=O)OCC(=O)NCc2ccco2)cc1 | 39 µg/mL (≈ 124 µM) |
| NC(Cc1ccc(OC(F)F)cc1)C(=O)O (stereo not given) | 32.7 µg/mL (≈ 141 µM) |
| CS(=O)c1ccc(-n2c(=O)n(Cc3ccccc3)c(=O)c3[nH]cnc32)cc1 (stereo not given) | > 57.1 µg/mL |
| Cc1ccc(CSCC(=O)Nc2ccccc2F)cc1 | 27.6 µg/mL (≈ 95.4 µM) |
| O=C(Cc1cccc2ccccc12)NCCOc1ccccc1F | 3.7 µg/mL (≈ 11.4 µM) |
| Cc1ccccc1C(=O)Nc1cccc(NC(=O)c2ccc(F)cc2)c1 | 1.8 µg/mL (≈ 5.17 µM) |
| CCc1ccc(OCCNC(=O)c2ccco2)cc1 | > 38.9 µg/mL |
| O=C(Cn1cc([N+](=O)[O-])ccc1=O)N1CCc2ccccc21 | 11.3 µg/mL (≈ 37.8 µM) |
| O=C(/C=C/c1ccco1)N1CCN(S(=O)(=O)c2cccc([N+](=O)[O-])c2)CC1 | 28.1 µg/mL (≈ 71.8 µM) |
| Cc1cc(C(=O)Nc2ccc(Br)cc2)c2ccccc2n1 | 0.5 µg/mL (≈ 1.47 µM) |
| COC(=O)c1sccc1NC(=O)c1c(F)c(F)c(F)c(F)c1F | < 0.8 µg/mL |
| Oc1c(Cl)cc(Cl)cc1CNc1nc2ccccc2[nH]1 | 3.5 µg/mL (≈ 11.4 µM) |
| O=S1(=O)N=C(Nc2ccc(O)cc2)c2ccccc21 | 11 µg/mL (≈ 40.1 µM) |
| CCN(CC)CCNC(=O)c1ccc(-n2c(C)cc3c2CCCC3=O)cc1 | 33.7 µg/mL (≈ 91.7 µM) |
| Cn1c(=O)c2c(nc3n2CCS3)n(C)c1=O | > 35.7 µg/mL |
| Cc1ccc(N2CN(CCC3=CCCCC3)CNC2=S)cc1 | 5.1 µg/mL (≈ 16.2 µM) |
| COc1ccccc1CNC(=S)NC1CCCCC1 | > 41.8 µg/mL |

| SMILES | solubility kinetic |
| --- | --- |
| COc1ccc(NS(=O)(=O)c2cccc(C(=O)O)c2)cc1S(=O)(=O)N1CCOCC1 | > 68.5 µg/mL |
| Cc1cccc(NC(=O)c2cccc(NC(=O)c3ccccc3)c2)n1 | 7.1 µg/mL (≈ 21.4 µM) |
| COc1cc(OC)cc(C(=O)Nc2cc(C)on2)c1 | 9.7 µg/mL (≈ 37 µM) |
| O=C(COC(=O)c1cc(Br)ccc1O)NC12CC3CC(CC(C3)C1)C2 | 3.1 µg/mL (≈ 7.59 µM) |
| Cn1c(O)c(C(=Nc2ccc(F)cc2)c2ccccc2)c(=O)n(C)c1=O | 7.4 µg/mL (≈ 20.9 µM) |
| CCN(C(=O)c1cccs1)c1nc(-c2ccc(OC)cc2)cs1 | 0.6 µg/mL (≈ 1.74 µM) |
| CC1(C)CC(=O)C2=C(C1)Nc1ccccc1NC2c1ccccc1F (stereo not given) | 10.5 µg/mL (≈ 31.2 µM) |
| CCOc1ccccc1NC(=O)Cn1c(=O)oc2ccccc21 | 25.2 µg/mL (≈ 80.7 µM) |
| C(=Nc1cccc2c(N=Cc3ccco3)cccc12)c1ccco1 | 46.7 µg/mL (≈ 149 µM) |
| COc1cccc(Nc2nc3cc(OC)ccc3cc2C#N)c1 | 0.2 µg/mL (≈ 0.655 µM) |
| Br.Fc1ccc(-c2csc(NC3=NCCC3)n2)cc1 | 43 µg/mL |
| CCOc1ccc(NC(=S)N2CCCC2)cc1 | > 37.6 µg/mL |
| Cc1nc(-c2ccc(C(=O)Nc3cccc(F)c3)cc2)cs1 | < 0.3 µg/mL |
| O=S(=O)(Cc1cc(Cl)nc(-c2cccnc2)n1)c1ccccc1 | 40.7 µg/mL (≈ 118 µM) |
| COc1cccc(N2CCN(C(=O)c3ccc(-c4ccccc4)cc3)CC2)c1 | 0.8 µg/mL (≈ 2.15 µM) |
| O=C(NC1CC1)c1cc2cc(Br)ccc2s1 | < 0.6 µg/mL |
| CCOC(=O)C1CCN(c2nc(C)cc(C)c2C#N)CC1 | 36.9 µg/mL (≈ 128 µM) |
| CC(C)Cn1c(=S)[nH]c2cc(C(=O)O)ccc2c1=O | > 41.7 µg/mL |
| Cc1ccc(C(=O)COC(=O)C(C)N2C(=O)C3C4C=CC(C4)C3C2=O)cc1C (stereo not given) | 55.5 µg/mL (≈ 146 µM) |
